The values below come from patent publication US20240108740A1, “THERAPEUTIC COMPOSITIONS INCLUDING SPN10 AND USES THEREOF” (Stealth BioTherapeutics Inc., priority 2022, published 2024).

Residues, ends and D or L forms follow the SMILES beside them.

Test [1] concerns acute myocardial infarction. Kind of test: Infarct size at revascularization, given with cyclosporine. It is filed as in vivo, human. As to conditions: along with cyclosporine at the time of reperfusion. The procedure:
Study group. Men and women, 18 years of age or older, who present within 6 hours after the onset of chest pain, who have ST-segment elevation of more than 0.1 mV in two contiguous leads, and for whom the clinical decision is made to treat with percutaneous coronary intervention (PCI) will be eligible for enrollment. Patients are eligible for the study whether they are undergoing primary PCI or rescue PCI. Occlusion of the affected coronary artery (Thrombolysis in Myocardial Infarction (TIMI) flow grade 0) at the time of admission is also a criterion for inclusion. Angiography and Revascularization. […] Either separately or simultaneously, cyclosporine (final concentration, […] will be injected through the catheter. Normal saline (0.9% NaCl) will be used as a control. The patients in the control group receive an equivalent volume of normal saline. Infarct Size. The primary end point will be the size of the infarct as assessed by measurements of cardiac biomarkers. Blood samples are obtained at admission and repeatedly over the next 3 days. The area under the curve (AUC) (expressed in arbitrary units) for creatine kinase and troponin I release (Beckman kit) will be measured in each patient by computerized planimetry. […] The images are analyzed in short axis slices covering the entire left ventricle. […]

For test [2], the system named is Caco-2 cells. Kind of test: Example 25: mitochondrial membrane potential after t-BHP (TMRM, CLSM). The format is cell-based, human. As to conditions: t-BHP 1 mM, 4 hours. The procedure:
Caco-2 cells will be treated with t-BHP (1 mM) alone or in the presence of peptide conjugates (0.1 μM); aromatic-cationic peptides (an equivalent molar dose of aromatic-cationic peptide based on the concentration of the aromatic-cationic peptide administered in the peptide conjugate treatment group); SPN10(s) (an equivalent molar dose of SPN10 based on the concentration of SPN10 administered in the peptide conjugate treatment group); or SPN10(s) in combination with aromatic-cationic peptides (e.g., an equivalent molar dose of SPN10 based on the concentration of SPN10 administered in the peptide conjugate treatment group and an equivalent molar dose of aromatic-cationic peptide based on the concentration of aromatic-cationic peptide administered in the peptide conjugate treatment group) for 4 hours, and then incubated with TMRM and examined under CLSM.

Test [3] relates to CD36 knockout (CD36 KO) mice. Put plainly: Example 3: acute cerebral ischemia in CD36 knockout mice. It is filed as in vivo, mouse. The procedure:
CD36 knockout (CD36 KO) mice will be subjected to acute cerebral ischemia as described in Example 2. CD36 KO mice will be given either saline vehicle (Veh) (i.p., n=5), peptide conjugates (2 mg/kg or 5 mg/kg, i.p., n=6), aromatic-cationic peptides (e.g., an equivalent molar dose of aromatic-cationic peptide based on the concentration of the aromatic-cationic peptide administered in the peptide conjugate treatment group), SPN10(s) (e.g., an equivalent molar dose of SPN10 based on the concentration of SPN10 administered in the peptide conjugate treatment group), or SPN10(s) in combination with aromatic-cationic peptides (e.g., an equivalent molar dose of SPN10 based on the concentration of SPN10 administered in the peptide conjugate treatment group and an equivalent molar dose of aromatic-cationic peptide based on the concentration of aromatic-cationic peptide administered in the peptide conjugate treatment group) at 0, 6, 24 and 48 hours following a 30 minute period of ischemia. Infarct volume and hemispheric swelling in CD36 KO mice are expected to be similar in subjects receiving saline, SPN10(s) (alone or in combination with aromatic-cationic peptides), aromatic-cationic peptides and peptide conjugates.

`N=C(N)NCCC[C@H](NC(=O)[C@@H](N)Cc1c[nH]c2ccccc12)C(=O)N[C@@H](Cc1c[nH]c2ccccc12)C(=O)N[C@@H](CCCCN)C(N)=O` [SPN10, H-L-Trp-L-Arg-L-Trp-L-Lys-NH2] (H-WRWK-NH2): the “infarct size versus placebo” value in test [1] is reported as “smaller infarct”. In addition, the “mitochondrial depolarization caused by t-BHP” value in test [2] is “protect against mitochondrial depolarization”. In test [3] (compared with saline), the “infarct volume and hemispheric swelling in CD36 KO mice” value was “similar”. Also, the “GSH depletion in the ipsilateral cortex in CD36 KO mice” value in test [3] (mouse, in vivo) is given as “fail to further prevent GSH depletion”.
